Reference: ChEMBL document CHEMBL1821674, “Design, synthesis and biological evaluation of novel nitroaromatic compounds as potent glutathione reductase inhibitors” (Bioorg Med Chem Lett, 2011)

Legend:
[1] = target: T1, Glutathione reductase, mitochondrial (Homo sapiens, UniProt P00390); test: Inhibition of human erythrocyte Glutathione reductase
T1 sequence (P00390 whole entry): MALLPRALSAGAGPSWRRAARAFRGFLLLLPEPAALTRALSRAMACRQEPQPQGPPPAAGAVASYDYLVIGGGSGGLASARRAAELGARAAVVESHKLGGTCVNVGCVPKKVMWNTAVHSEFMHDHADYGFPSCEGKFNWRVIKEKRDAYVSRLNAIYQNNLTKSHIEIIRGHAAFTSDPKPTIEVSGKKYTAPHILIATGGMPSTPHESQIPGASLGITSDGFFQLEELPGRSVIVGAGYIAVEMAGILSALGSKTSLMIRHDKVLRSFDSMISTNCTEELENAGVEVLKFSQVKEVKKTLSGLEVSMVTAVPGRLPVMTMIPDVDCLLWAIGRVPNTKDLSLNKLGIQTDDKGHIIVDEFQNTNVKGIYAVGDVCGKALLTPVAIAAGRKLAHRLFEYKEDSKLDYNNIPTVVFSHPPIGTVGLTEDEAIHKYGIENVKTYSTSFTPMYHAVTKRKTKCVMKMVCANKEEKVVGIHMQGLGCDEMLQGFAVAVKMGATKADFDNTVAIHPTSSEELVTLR

[2] = target: T1, Glutathione reductase, mitochondrial
[3] = target: T1, Glutathione reductase, mitochondrial; test: Non-Competitive inhibition of human erythrocyte Glutathione reductase using GSSG substrate by Lineweaver-Burk plot analysis

| Compound | IC50 [1] | Ki [3] | Ki [2] |
| --- | --- | --- | --- |
| COC(=O)C1=C(C)NC(C)=C(C(=O)OC)C1c1ccccc1[N+](=O)[O-] [NIFEDIPINE] | 23.4 µM | – | 17.4 µM |
| O=[N+]([O-])c1ccccc1 [NITROBENZENE] | 547 µM | – | 274 µM |
| NCCCC[C@H](N)C(=O)O [LYSINE] | 61.2 µM | – | 54.6 µM |

Further lines, with some results ahead:

| IC50 [1] | Ki [3] | Compound | Ki [2] |
| --- | --- | --- | --- |
| 53.7 µM | – | N[C@@H](CCC(=O)O)C(=O)O [GLUTAMIC ACID] | 42.7 µM |
| 13.3 µM | – | CC[C@H](CO)NCc1ccc([N+](=O)[O-])cc1 | 4.57 µM |
| 0.344 µM | – | O=C(O)CC[C@H](NC(=O)c1ccc([N+](=O)[O-])cc1)C(=O)O | 0.211 µM |
| 15.4 µM | 4.16 µM | CC(C)(C)OC(=O)N[C@@H](CCCCNC(=O)OCc1ccccc1Cl)C(=O)Oc1ccc([N+](=O)[O-])cc1 | – |
